Test results from patent US20110166156A1, “Prodrugs for the Treatment of Schizophrenia and Bipolar Disease” (Alkermes, Inc., priority 2010, published 2011).

Assay: Pharmacokinetic evaluation of paliperidone prodrugs in rats, intramuscular administration (Study 1 and Study 2)
Assay type: in vivo, Sprague-Dawley rats
Details: male rats, IM, milled crystalline suspension, plasma by LC-MS/MS; for Cmax: combined Study 1 and Study 2, compared in The FIGURE with the other prodrugs tested; for Tmax: combined Study 1 and Study 2, shown in The FIGURE
Experimental: Two PK studies were conducted using intramuscular (IM) administration in rats of water-insoluble paliperidone prodrugs and the results were combined in The FIGURE.
Animals: 18 Male Sprague-Dawley rats (Charles River Laboratories, Wilmington, Mass.) were used in the study. Three groups of 6 rats were used and are referred to in this study as Groups A, B and C. Rats were approximately 350-375 g at time of arrival. Rats are housed 2 per cage with ad libitum chow and water. Environmental conditions in the housing room: 64-67° F., 30% to 70% relative humidity, and 12:12-h light:dark cycle. All experiments were approved by the institutional animal care and use committee.
Pharmacokinetics study: Rats were dosed IM by means of a 23 gauge, 1 inch needle with 1 cc syringe 0.3 mL suspension was withdrawn from the vial containing the test compound in suspension. The rat was injected in the muscles of the hind limb after anesthesia with isoflurane. Blood samples were collected via a lateral tail vein after brief anesthesia with Isoflurane. A 27½ G needle and 1 cc syringe without an anticoagulant was used for the blood collection. Approximately 35 0 μL of whole blood was collected at each sampling time point of 6 hours, 24 hours and 2, 5, 7, 9, 12, 14, 21, 28, 35 days after administration. Once collected, whole blood was immediately transferred to tubes containing K2 EDTA, inverted 10-15 times and immediately placed on ice. The tubes were centrifuged for 2 minutes at >14,000 g's (11500 RPMs using Eppendorf Centrifuge 5417C, F45-30-11 rotor) at room temperature to separate plasma. Plasma samples were transferred to labeled plain tubes (MICROTAINER®) and stored frozen at <−70° C.
(§1) Data Analysis: Drug concentrations in plasma samples were analyzed by liquid chromatography-mass spectroscopy (LC-MS/MS) using appropriate parameters for each compound. Half-life of Paliperidone, maximal concentration (Cmax), time to maximal concentration (Tmax), and AUC were calculated by using WinNonlin version 5.2 software (Pharsight, St. Louis, Mo.).
Pharmacokinetics study: Rats were dosed IM by means of a 23 gauge, 1 in. needle with 1 cc syringe 0.3 mL suspension was withdrawn from the vial containing the test compound in suspension. The rat was injected in the muscles of the hind limb after anesthesia with isoflurane. Blood samples were collected via a lateral tail vein after brief anesthesia with Isoflurane. […]
as §1, with “Half-life,” for “Half-life of Paliperidone,”, “concentration,” for “concentration (Cmax),”, “concentration” for “concentration (Tmax),”, “Mo.). […]” for “Mo.).”

Cmax | Tmax | SMILES
lower than that of the other compounds | delayed | CCCCCCCCCCCCCCCC(=O)OCOC1CCCn2c1nc(C)c(CCN1CCC(c3noc4cc(F)ccc34)CC1)c2=O (stereo not shown) [Compound 157]
lower than that of the other compounds | delayed | CCCCCCCCCCCCCCCC(=O)OC1CCCn2c1nc(C)c(CCN1CCC(c3noc4cc(F)ccc34)CC1)c2=O (stereo not shown) [PP, Paliperidone Palmitate]
